Read-outs that look alike come from different tables or passages of the source. Marks after values point to notes of the source that are not given here.
How the values were obtained:
S. liquefaciens MG44 = assay: static peg (Calgary Biofilm Device) anti-biofilm assay, crystal violet and OD600; assay type: cell-based, Serratia liquefaciens
[1] = tested on: C. albicans SC5314 + S. aureus SH1000; assay: mixed C. albicans/S. aureus biofilm assay, selective plating; assay type: cell-based, Candida albicans; Staphylococcus aureus; settings: 37° C.; for CFUs % survival S.a.: S. aureus in mixed biofilm with C. albicans
Experimental: Overnight cultures of C. albicans SC5314 (YPD, 30° C.) and S. aureus SH1000 (LB, 37° C.) were washed with PBS, after which they were diluted in RPMI medium to obtain cell suspensions of 10^6 cells/ml for fungal cells and 10^8 cells/ml for bacteria. Equal volumes of these cell suspensions were mixed, and 100 μl of this mixed cell suspension together with compound was added to the wells of a microtiter plate in triplicate. The concentrations 25 μM (0.0625% DMSO or ethanol) and 100 μM (0.25% DMSO or ethanol) were tested. The plates were incubated at 37° C. for 90 min. After incubation the wells were washed twice with PBS, and 200 μl of the fresh RPMI medium with or without compounds was added in triplicate to the wells. After 24 h incubation at 37° C. the medium was removed and the biofilm was washed with PBS. Next, the cells were re-suspended in 100 μl of PBS by scraping off, sonication (1 min, 45 kHz, USC300-T; VWR, Radnor, Pa., USA) and vigorously pipetting up-and-down. Finally, dilution series were made, and quantification of S. aureus SH1000 and C. albicans SC5314 populations was performed using selective plating on TSA plates containing 25 mg/L amphotericin B and YPD plates containing 100 μg/ml tetracycline, respectively. The percentage of C. albicans SC5314 and S. aureus SH1000 cells was determined relative to the DMSO or ethanol control treatment.

S. Typhimurium ATCC14028 = assay: static peg (Calgary Biofilm Device) anti-biofilm assay, crystal violet and OD600; settings: read-out: BIC50; biofilm formation, 25° C.
P. gingivalis ATCC33277 = assay: as above; settings: 37° C.
C. albicans SC5314 = assay: inhibition of C. albicans biofilms, cell titer blue (CTB) quantification; assay type: cell-based, Candida albicans; settings: biofilm formation, read-out: BIC50
Experimental: The potential of the compounds to prevent C. albicans SC5314 biofilm formation was assessed using the cell titer blue (CTB) quantification method (26). For the CTB method, an overnight culture of C. albicans SC5314 was washed with PBS and a cell suspension of 10^6 cells/ml (OD600=0.1) was prepared in RPMI 1640 medium (pH 7.0). […] After 16 h of static incubation at 37° C., biofilms were washed and quantified with CTB as described previously.

B. cepacia LMG1222T = assay: static peg (Calgary Biofilm Device) anti-biofilm assay, crystal violet and OD600; settings: 25° C.
S. epidermidis = assay: as above; settings: 37° C.
S. aureus ATCC6538 = assay: as above; settings: 37° C.
[2] = tested on: S. aureus ATCC6538 + S. epidermidis; assay: mixed S. aureus/S. epidermidis biofilm assay, crystal violet; assay type: cell-based; settings: 37° C. (Table 3)
Experimental: Overnight cultures of S. aureus ATCC6538 and S. epidermidis were grown in LB medium and were diluted 1/200 in the same vial of TSB to form a mixed culture suspension.

[3] = tested on: E. coli TG1 + P. aeruginosa PA14; assay: mixed E. coli/P. aeruginosa biofilm assay, crystal violet; assay type: cell-based; settings: 37° C. (Table 3)
Experimental: Overnight cultures of E. coli TG1 and P. aeruginosa PA14, were diluted 1/100 in the same vial of TSB 1/20 to form a mixed culture suspension.

E. coli TG1 = assay: static peg (Calgary Biofilm Device) anti-biofilm assay, crystal violet and OD600; settings: 37° C.
[4] = tested on: C. albicans SC5314 + E. coli MG1655; assay: mixed C. albicans/E. coli biofilm assay, selective plating; assay type: cell-based, Candida albicans; E. coli; settings: 37° C.; for CFUs % survival E. coli: E. coli in mixed biofilm with C. albicans
Experimental: Overnight cultures of C. albicans SC5314 (YPD) and E. coli MG1655 (TSB). were washed three times with PBS, after which they were diluted in RPMI medium to optical densities at 600 nm (OD600) of 1 and 0.01, respectively. Equal volumes of these cell suspensions were mixed, and 100 μl of this mixed cell suspension together with compound was added to the wells of a microtiter plate in triplicate. The concentrations 25 μM (0.0625% DMSO or ethanol) and 100 μM (0.25% DMSO or ethanol) were tested. After 24 h incubation at 37° C. the medium was removed and the biofilm was washed with PBS. Next, the cells were re-suspended in 100 μl of PBS by scraping off, sonication (1 min, 45 kHz, USC300-T; VWR, Radnor, Pa., USA) and vigorously pipetting up-and-down. Finally, dilution series were made, and quantification of E. coli MG1655 and C. albicans SC5314 populations was performed using selective plating on TSA plates containing 25 mg/L amphotericin B and YPD plates containing 100 μg/ml tetracycline, respectively. The percentage of C. albicans SC5314 and E. coli MG1655 cells was determined relative to the DMSO or ethanol control treatment.

P. aeruginosa PA14 = assay: static peg (Calgary Biofilm Device) anti-biofilm assay, crystal violet and OD600
S. aureus SH1000 = assay: as above; settings: 37° C.
[5] = C. albicans in mixed biofilm with S. aureus SH1000, 25 μM
[6] = C. albicans in mixed biofilm with S. aureus SH1000, 100 μM
[7] = read-out: BIC50, biofilm formation
[8] = mixed biofilm formation, read-out: BIC50
[9] = planktonic growth of mixed culture, read-out: IC50
[10] = C. albicans in mixed biofilm with E. coli MG1655, 25 μM
[11] = C. albicans in mixed biofilm with E. coli MG1655, 100 μM
[12] = read-out: BIC50, biofilm formation, 25° C.
[13] = read-out: BIC50, biofilm formation, 37° C.
[14] = biofilm formation, 25° C., read-out: BIC50
[15] = planktonic growth, 25° C., read-out: IC50

| SMILES | CFUs % survival C.a. [1, 5] [%] | CFUs % survival C.a. [1, 6] | CFUs % survival S.a. ([1]; 25 μM) [%] | CFUs % survival S.a. ([1]; 100 μM) | IC50 (S. Typhimurium ATCC14028) [µM] | IC50 (P. gingivalis ATCC33277; planktonic growth) [µM] | IC50 (P. gingivalis ATCC33277; [7]) [µM] | IC50 (B. cepacia LMG1222T; planktonic growth) [µM] | IC50 (B. cepacia LMG1222T; [7]) [µM] | IC50 (S. epidermidis; planktonic growth) [µM] | IC50 (S. epidermidis; [7]) [µM] | IC50 (S. aureus ATCC6538; planktonic growth) [µM] | IC50 (S. aureus ATCC6538; [7]) [µM] | IC50 [2, 8] [µM] | IC50 [2, 9] [µM] | IC50 [3, 8] [µM] | IC50 [3, 9] [µM] | IC50 (E. coli TG1; planktonic growth) [µM] | IC50 (E. coli TG1; [7]) [µM] | CFUs % survival C.a. [4, 10] [%] | further results |
| --- | --- | --- | --- | --- | --- | --- | --- | --- | --- | --- | --- | --- | --- | --- | --- | --- | --- | --- | --- | --- | --- |
| CCCCCCCCn1c(-c2ccc(Cl)cc2)cnc1N [Compound 2] | 183.8 | 0.9* % | 87.7 | 0.2* % | ~5.9 | 6 | 3.9 | > 400 | 145 | ~11.1 | ~5.6 | 7.8 | 2.8 | ~7.2 | ~9.9 | 36.8 | 19.9 | 7.7 | ~6.5 | 104.9 | IC50 (S. liquefaciens MG44; biofilm formation, read-out: BIC50): 18.8 µM; IC50 (S. liquefaciens MG44; planktonic growth, read-out: IC50): 38 µM; IC50 (C. albicans SC5314): 6.2 µM; CFUs % survival C.a. [4, 11]: 0.0* %; CFUs % survival E. coli ([4]; 25 μM): 158.6%; CFUs % survival E. coli ([4]; 100 μM): 0.1* %; IC50 (P. aeruginosa PA14; planktonic growth, 37° C.): 10 µM; IC50 (P. aeruginosa PA14; [12]): 4 µM; IC50 (P. aeruginosa PA14; [13]): 118 µM; IC50 (S. aureus SH1000; planktonic growth): 8.3 µM; IC50 (S. aureus SH1000; [7]): 3.4 µM |
| CC(C)CNc1ncc(-c2ccc(Cl)cc2)[nH]1 [Compound 3] | 165.7 | 141.3% | 124.6 | 51.8* % | 2 | 5.1 | 5.3 | > 400 | 88.1 | 86.2 | > 400 | ~96.1 | 95.3 | ~26.3 | ~140 | 7.4 | > 400 | 30 | 110 | 143.4 | IC50 (S. liquefaciens MG44; [14]): 10.4 µM; IC50 (S. liquefaciens MG44; [15]): 154 µM; IC50 (C. albicans SC5314; 37° C.): 93.9 µM; CFUs % survival C.a. [4, 11]: 59.6* %; CFUs % survival E. coli ([4]; 25 μM): 138.5%; CFUs % survival E. coli ([4]; 100 μM): 63.0* %; IC50 (P. aeruginosa PA14; planktonic growth, 37° C.): > 400 µM; IC50 (P. aeruginosa PA14; [12]): 0.9 µM; IC50 (P. aeruginosa PA14; [13]): > 400 µM; IC50 (S. aureus SH1000; planktonic growth): ~175 µM; IC50 (S. aureus SH1000; [7]): ~200 µM |
| Clc1ccc(-c2cnc(NC3CCCC3)[nH]2)cc1 [Compound 5] | 232.4 | 120.6% | 75.4 | 74.5* % | 4.4 | 4 | 5.7 | > 400 | 331 | 39.5 | > 400 | 62.3 | 34.4 | ~66.6 | ~91.7 | 0.5 | > 400 | 17.1 | ~45.7 | 100.8 | IC50 (S. liquefaciens MG44; [14]): 8.8 µM; IC50 (S. liquefaciens MG44; [15]): 125 µM; IC50 (C. albicans SC5314; 37° C.): 64 µM; CFUs % survival C.a. [4, 11]: 38.3* %; CFUs % survival E. coli ([4]; 25 μM): 100.6%; CFUs % survival E. coli ([4]; 100 μM): 105.6* %; IC50 (P. aeruginosa PA14; planktonic growth, 37° C.): > 400 µM; IC50 (P. aeruginosa PA14; [12]): 13.5 µM; IC50 (P. aeruginosa PA14; [13]): > 400 µM; IC50 (S. aureus SH1000; planktonic growth): 71.5 µM; IC50 (S. aureus SH1000; [7]): 70.6 µM |
